Results on 1 molecule are retold here after US12612386B2, “Heteroaryl-triazole compounds as pesticides” (Bayer Aktiengesellschaft, priority 2020, dated 2026).

Format in all cases: in vivo
Assay [1] relates to adult engorged female ticks (Rhipicephalus microplus). Kind of assay: Rhipicephalus (Boophilus) microplus injection test. The following applies: 4 μg/animal, egg deposition after 7 days. The procedure:
Rhipicephalus (Boophilus) Microplus—Injection Test
(§1) Solvent: dimethyl sulfoxide
To produce a suitable preparation of active compound, 10 mg of active compound are dissolved in 0.5 mL solvent, and the concentrate is diluted with solvent to the desired concentration.
Five adult engorged female ticks (Rhipicephalus microplus) are injected with 1 μL compound solution into the abdomen. The ticks are transferred into replica plates and incubated in a climate chamber.
After 7 days egg deposition of fertile eggs is monitored. Eggs where fertility is not visible are stored in a climate chamber till hatching after about 42 days. An efficacy of 100% means all eggs are infertile; 0% means all eggs are fertile.

The subject of assay [2] is larvae of the banded cucumber beetle (Diabrotica balteata). The assay can be described thus: Diabrotica balteata spray test. The following applies: 168 h, 100 g/ha (=32 μg/well), after 7 days, read-out: efficacy (seedling growth). In a few lines:
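Efficacy is seedling survival after 7 days, where 0% means no seedlings grew and 100% means growth equal to untreated, uninfested controls. Wheat seedlings, germinated on agar for 1 day, were sprayed with the aqueous emulsifier dilution (acetone/DMF solvent) and then exposed to 10–20 banded cucumber beetle larvae.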

Assay [3] relates to adult flies Musca domestica strain WHO-N. The assay can be described thus: Musca domestica test (MUSCDO surface treatment & contact assay). Conditions: surface concentration 20 mg/m^2, 30 min exposure, 24 hours after contact, read-out: efficacy (mortality). Summed up:
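Compound in acetone with 2000 ppm rapeseed oil methyl ester dried onto glazed tile; adult WHO-N strain flies exposed to surface 30 minutes. Percent mortality scored 24 hours after contact.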

The test system of assay [4] is adult unfed cat fleas (Ctenocephalides felis). Kind of assay: Ctenocephalides felis oral test. Conditions: 48 h. As to the method: Ctenocephalides felis—Oral Test
as §1
To produce a suitable preparation of active compound, 10 mg of active compound are dissolved in 0.5 mL solvent, and the concentrate is diluted with citrated cattle blood to the desired concentration.
Approximately 20 adult unfed cat fleas (Ctenocephalides felis) are placed in a flea chamber whose top and bottom is covered with gauze. A chamber whose bottom is sealed with parafilm, is filled with the blood-compound solution and placed on top of the flea chamber, so that the fleas can suck the blood. The blood chamber is heated to 37° C. whereas the flea chamber is kept at room temperature.
After 2 days mortality in % is determined. 100% means all the fleas have been killed; 0% means none of the fleas have been killed.

For assay [5], the system named is green peach aphid (Myzus persicae). The assay can be described thus: Myzus persicae spray test (MYZUPE). Conditions: 120 h, 100 g/ha, after 5 days. Summed up:
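Percent aphid kill, with 0% meaning none killed, was read 5 days after spraying. The preparation (acetone–DMF solvent, water with 1000 ppm emulsifier) was applied to Brassica pekinensis leaf disks carrying mixed-instar green peach aphids.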

The subject of assay [6] is adult mosquitoes Aedes aegypti strain MONHEIM. The assay can be described thus: Aedes aegypti test (AEDSAE surface treatment & contact assay). Conditions: 24 hours after contact, read-out: efficacy (mortality). Summed up:
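Compound in acetone containing 2000 ppm rapeseed oil methyl ester applied to a glazed tile and dried; adult mosquitoes exposed on the treated surface for 30 minutes. Percent mortality scored 24 hours after contact (100% = all dead, 0% = none dead).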

In assay [7] the test system is adult brown dog ticks (Rhipicephalus sanguineus). Kind of assay: Rhipicephalus sanguineus in-vitro contact test, adult brown dog ticks. The following applies: 48 h, read-out: efficacy (ticks dead or moribund). Summed up: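 Read-out: % efficacy as dead or moribund ticks, judged 48 h after exposure by failure to climb away from a 45-50° C heating plate within 5 min. Tubes were coated with acetone solution (900 ppm = 5 μg/cm^2 surface dose) and held 5-10 adults each at room temperature.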

The test system of assay [8] is cattle tick larvae (Rhipicephalus microplus), strain Parkhurst, resistant against synthetic pyrethroids. Kind of assay: Rhipicephalus (Boophilus) microplus in-vitro contact test, larval cattle tick. The following applies: 5 μg/cm^2 (=500 g/ha), after 48 hours. In a few lines: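 Larvae exposed by contact to a dried acetone film on glass; a 900 ppm solution yields 5 μg/cm^2. Scoring after 48 h at 27° C. counts dead plus moribund larvae as efficacy.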

Structures are written as SMILES.

By mortality is commonly meant the share of the test organisms that died.

Consider `C[C@H](NC(=O)c1cc(Br)cc(OC(F)(F)F)c1)c1ncnn1-c1cc(C#N)ncn1` [I-1, 3-bromo-N-{(1S)-1-[1-(6-cyanopyrimidin-4-yl)-1H-1,2,4-triazol-5-yl]ethyl}-5-(trifluoromethoxy)benzamide], for which, in assay [1], the “efficacy (infertile eggs)” value was 100%. In addition, the pest or weed control at 32 µg/disc, 100 g/ha in assay [2] was found to be 80%. The mortality at 20 mg/m2 in assay [3] fell in the range of 80 to 100%; in assay [6] (surface concentration 20 mg/m^2, 30 min exposure), 80 to 100%. In addition, the mortality at 100 ppm in assay [4] turned out to be 100%. This molecule also yielded a mortality at 100 g/ha in assay [5] of 90%. In addition, the mortality at 4 mg/m2 in assay [6] (surface concentration 4 mg/m^2, 30 min exposure) lay in the range of 80 to 100%. Moreover, in assay [7], the pest or weed control at 5 µg/cm2, 500 g/ha was 100%. Besides, the “efficacy (larvae dead or moribund)” value in assay [8] turned out to be 100%.
